Series [1] in a line: in vitro dissolution of medrogestone, USP XX <711> Apparatus 2, 50 r.p.m. The settings on record: sugar coat containing 0.4% microcrystalline cellulose versus conventional tablet. Format: physicochemical. As for the experimental part:
A sugar coating containing 5 mg of medrogestone in a matrix of sucrose with 0.4% microcrystalline cellulose and 0.5% polyvinyl pyrrolidone was applied to a sealed and sugar-coated tablet core.

Series [2] can be described thus: in vitro dissolution of steroid, Method A (USP XX <711> Apparatus 2, 50 rpm). The class given is physicochemical. The settings on record: Examples 1-3, Methods A, B and C, no microcrystalline cellulose. The text has this:
CV represents the coefficient of variation between these trials expressed as a percentage.

The values that follow come from patent US5759577A, “Controlled release of steroids from sugar coatings” (American Home Products Corporation, priority 1996, dated 1998).

Turning to `CC(=O)[C@@]1(C)CC[C@H]2[C@@H]3C=C(C)C4=CC(=O)CC[C@]4(C)[C@H]3CC[C@@]21C` [medrogestone], in series [1], the “dissolution of medrogestone (in words)” value is given as “dramatic effect of reduced dissolution”. As for `CC(=O)O[C@]1(C(C)=O)CC[C@H]2[C@@H]3C[C@H](C)C4=CC(=O)CC[C@]4(C)[C@H]3CC[C@@]21C` [medroxyprogesterone acetate], the “release from the sugar coating (in words)” value in series [2] was “released from the sugar coating extremely rapidly”.
